≈ marks a conversion by molar mass, not a printed value.
Tests used:
[1] = target: T1, Recombinant human soluble guanylate cyclase (sGC) (Homo sapiens, UniProt Q02153); assay: Molecular assay: activation of heme-free sGC, cGMP detection (CisBio kit); type: biochemical; conditions: 300 pM heme-free sGC, 37° C., 60 minutes, cGMP formation
T1 construct: histidine tag (C); made in house; host or cells: Sf9 insect cells (baculovirus coinfection)
Experimental: The compounds of the invention may be evaluated in the following molecular assay:
Recombinant human soluble guanylate cyclase (sGC) is purified from Sf9 insect cells coinfected with baculoviruses expressing the alpha 1 or beta 1 subunit of sGC, both with a C-terminal histidine tag. Heme-free sGC is prepared by treating cell lysate with a final concentration of 0.5% Tween 20 prior to purification on a nickel affinity column.
sGC catalyzes the conversion of guanosine-5′-triphosphate (GTP) to cyclic guanosine monophosphate (cGMP). The activity of sGC is measured in vitro using the commercially available CisBio cGMP detection kit (catalog #62GM2PEB) in a 384 well format. In brief, 300 pM heme-free sGC is incubated in reaction buffer (50 mM MOPS pH 6.8, 0.2 N KOH, 50 mM NaCl, 2 mM MgCl2, 0.1% BSA, 1.25 mM IBMX, 0.25 mM TCEP, 50 nM GTP) in the presence or absence of dilutions of test compounds diluted in DMSO (final concentration of 1%) in a volume of 10 microL at 37° C. for 60 minutes. Undiluted reaction products or an 80-fold dilution of reaction products (10 microL of either) prepared in reaction buffer containing 0.2 mM TCEP and 10 mM EDTA is mixed with 5 microL of d2-cGMP plus 5 microL of Eu^3+cryptate-labeled anti-cGMP, each diluted in buffer containing 0.1 M KPO4 pH 7.5, 0.4 M KF, 20 mM EDTA, 0.2% BSA. After a one hour incubation at room temperature in the dark, the mixtures are quantified on an EnVision plate reader (PerkinElmer) according to manufacturer instructions (laser excitation 337 nm, emission 620 and 665 nm). The ratio at each compound concentration is converted to nM cGMP using the linear portion of a calibration curve. Log compound concentration is plotted against combined undiluted and diluted nM cGMP values to determine the EC50 for each curve.
Representative compounds of the present invention were tested for activity in the above assay. Preferred compounds have an IC50<5,000 nM and more preferred compounds have an IC50<100 nM in this assay.

[2] = Assessment of solubility (HT solubility, pION, UV); type: physicochemical; conditions: incubated 16-19 hours, 1.0% DMSO, 100 uM; for solubility kinetic: pH 4.5 buffer (pION system solution), pH 4.5, aqueous buffer, kinetic from dmso stock, pH 4.5 buffer, read-out: Sol pH 4.5; for Sol pH 7.4: pH 7.4 buffer
Experimental: Solubility is measured by the following method.
DMSO stock samples at 10 mM conc are prepared. […] The samples are pierced and 100 ul of thawed samples are transferred into the PCR plate for analysis. Each sample is run in duplicate at each pH (pH 4.5 and 7.4). Up to 95 samples can be run in replicate at 2 pH's+1 DMSO (blank).
2. Preparation of pH 4.5 and 7.4 buffers:
pH 4.5 buffer: To 12.5 of system solution (pION) qs to 500 mL of distilled water (pH 2.85-2.90); adjust the pH to pH 4.5 with 0.5 N NaOH.
pH 7.4 buffer: To 12.5 of system solution (pION) qs to 500 mL of distilled water (pH 2.85-2.90); adjust the pH to pH 7.4 with 0.5N NaOH.
Preparation of UV blank plate:
75 ul of buffer (pH 7.4 or pH 4.5) is added to UV plate followed by addition of […] of N-propanol. The solution is mixed and the blank spectrum is read using spectrophotometer.
Preparation of Reference UV plate:
10 ul of each stock sample (including DMSO control) is added to 190 ul of N-propanol to prepare the reference stock plate. Reference stock samples are mixed and 5 ul of each stock sample is added to UV blank plate after it is read spectrophotometrically. The reference stock sample is mixed with blank solution in UV plate and the reference spectrum is read using UV spectrophotometer.
Preparation of sample for incubation:
Solubility at pH 7.4: 6 ul of each stock sample (including DMSO control) is added to the storage plate containing 600 ul of pH 7.4 buffer, mixed and incubated for 16-19 hours. The plate is sealed well during the incubation process. The DMSO content in the sample is 1.0%. The concn in deep well plates is 100 uM
6 ul of each stock sample (including DMSO control) is added to the deep well plate containing 600 ul of pH 4.5 buffer, mixed and incubated for 16-19 hours. The plate is sealed well during the incubation process. The DMSO content in the sample is 1.0%. The concn in deep well plates is 100 uM
Preparation of sample UV plate:
At the end of the incubation period, 100 uL of sample from the storage plate is vacuum filtered using a filter plate. This step wets the filters and the filtrate is discarded. Another 200 ul of the sample from the deep well plate is vacuum filtered using the same filter block but a clean filter plate. 75 ul of the filtrate from the filter plate is transferred to a UV sample plate. 75 ul of N-propanol is added to this UV plate. The solution is mixed and the spectrum is read using the UV spectrophotometer.
The spectra collected for blank, reference and sample from 250-498 nm is analyzed using pION software. If the sample precipitates out, the solubility is reported as XX μg/ml. If there is no precipitation and the sample is soluble, solubility is reported as […] (YY being the initial concentration of the compound in the sample).

T1 sequence (Q02108 whole entry partner): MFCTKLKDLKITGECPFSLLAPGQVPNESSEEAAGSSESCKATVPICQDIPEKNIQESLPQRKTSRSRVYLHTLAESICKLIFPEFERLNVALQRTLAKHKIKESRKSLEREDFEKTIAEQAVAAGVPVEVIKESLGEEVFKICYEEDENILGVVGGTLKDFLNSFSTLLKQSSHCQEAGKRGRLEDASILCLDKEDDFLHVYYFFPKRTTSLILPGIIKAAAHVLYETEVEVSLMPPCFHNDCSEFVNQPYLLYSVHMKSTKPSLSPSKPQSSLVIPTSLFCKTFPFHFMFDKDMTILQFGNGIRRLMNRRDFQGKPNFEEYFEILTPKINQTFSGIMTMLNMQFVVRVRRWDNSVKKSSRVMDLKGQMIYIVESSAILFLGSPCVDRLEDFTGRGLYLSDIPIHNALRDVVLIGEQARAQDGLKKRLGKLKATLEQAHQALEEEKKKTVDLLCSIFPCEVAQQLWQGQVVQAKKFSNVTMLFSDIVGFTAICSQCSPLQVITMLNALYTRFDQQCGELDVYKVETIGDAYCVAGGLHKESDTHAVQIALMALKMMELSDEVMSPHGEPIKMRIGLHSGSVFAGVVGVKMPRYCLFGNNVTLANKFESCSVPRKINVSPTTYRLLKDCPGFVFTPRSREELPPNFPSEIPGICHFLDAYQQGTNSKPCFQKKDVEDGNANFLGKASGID
T1 sequence (Q02153 whole entry): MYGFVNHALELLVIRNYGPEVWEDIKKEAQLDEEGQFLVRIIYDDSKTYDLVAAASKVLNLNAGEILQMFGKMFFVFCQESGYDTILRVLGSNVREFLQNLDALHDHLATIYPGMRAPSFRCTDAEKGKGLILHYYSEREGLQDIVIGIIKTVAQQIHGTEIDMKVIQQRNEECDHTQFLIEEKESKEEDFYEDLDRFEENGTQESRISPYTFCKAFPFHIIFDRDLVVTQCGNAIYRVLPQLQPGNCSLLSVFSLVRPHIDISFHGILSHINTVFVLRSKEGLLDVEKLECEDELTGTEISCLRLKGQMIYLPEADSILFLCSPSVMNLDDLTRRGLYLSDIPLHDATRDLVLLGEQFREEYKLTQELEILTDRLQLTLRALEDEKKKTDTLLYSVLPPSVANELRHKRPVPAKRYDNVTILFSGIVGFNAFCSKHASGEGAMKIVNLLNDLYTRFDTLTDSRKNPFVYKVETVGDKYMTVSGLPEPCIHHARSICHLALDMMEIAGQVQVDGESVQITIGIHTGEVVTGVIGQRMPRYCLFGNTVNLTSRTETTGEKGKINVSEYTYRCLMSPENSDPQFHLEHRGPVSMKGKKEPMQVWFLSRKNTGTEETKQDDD

Row | SMILES | EC50 [1] [nM] | solubility kinetic [2] [µg/mL] | Sol pH 7.4 [2] [μg/mL]
1 | Cc1ccc(OCc2ccc3c(c2)CCN(S(=O)(=O)CCCC(=O)O)C3)c(-c2cccc(-n3ncc(C(=O)O)c3C(F)(F)F)n2)c1 [Compound 3, 1-(6-{2-[2-(3-carboxypropane-1-sulfonyl)-1,2,3,4-tetrahydroisoquinolin-6-ylmethoxy]-5-methylphenyl}pyridin-2-yl)-5-trifluoromethyl-1H-pyrazole-4-carboxylic acid] | 27 | 0.8 (≈ 1.21 µM) | >65
2 | Cc1cccc(-c2cccc(-c3c(C)c(C(=O)O)nn3C3CC3)n2)c1OCc1ccc2c(c1)CCN(C1CCC(F)(F)CC1)C2 [Compound 90] | 15 | 49 (≈ 80 µM) | 50.2
3 | Cc1cccc(-c2cccc(-n3cnc(C(=O)O)c3C)n2)c1OCc1ccc2c(c1C)CCN(C1CCOC1)C2 (stereo not drawn) [Compound 55] | 44 | > 63 | >63
4 | Cn1c(C(=O)O)cnc1-c1cccc(-c2cccc(C(F)(F)F)c2OCc2ccc3c(c2)CCN(C2CCOCC2)C3)n1 [Compound 61] | 75 | > 110 | >110
5 | Cc1ccc(OCc2ccc3c(c2C)CCN(C)C3)c(-c2cccc(-c3ncc(C(=O)O)n3C)n2)c1 [Compound 48, 2-{6-[2-(2,5-dimethyl-1,2,3,4-tetrahydroisoquinolin-6-ylmethoxy)-5-methylphenyl]pyridin-2-yl}-3-methyl-3H-imidazole-4-carboxylic acid] | 640 | 5.1 (≈ 10.6 µM) | 1.9
6 | Cc1ccc(OCc2ccc3c(c2)CCN(C2CCC(C(F)(F)F)CC2)C3)c(-c2cccc(-n3ncc(C(=O)O)c3C(F)(F)F)n2)c1 (stereo not drawn) [Compound 33] | 6 | 6.3 (≈ 9.57 µM) | 4.6
7 | CC(=O)N1CCc2cc(COc3ccc(C)cc3-c3cccc(-n4ncc(C(=O)O)c4C(F)(F)F)n3)ccc2C1 [Compound 6, 1-{6-[2-(2-acetyl-1,2,3,4-tetrahydroisoquinolin-6-ylmethoxy)-5-methylphenyl]pyridin-2-yl}-5-trifluoromethyl-1H-pyrazole-4-carboxylic acid] | 78 | 0.5 (≈ 0.908 µM) | >54
8 | Cc1cccc(-c2cccc(-c3c(C)c(C(=O)O)nn3CC(F)(F)F)n2)c1OCc1ccc2c(c1)CCN(C1CCOCC1)C2 [Compound 87] | 180 | 17.3 (≈ 27.9 µM) | 14.1
9 | Cc1ccc(OCc2ccc3c(c2C)CCN(C2CCOC2)C3)c(-c2cccc(-c3ncc(C(=O)O)n3C)n2)c1 (stereo not drawn) [Compound 54] | 165 | > 76 | 32.6
10 | CCn1cc(CN2CCc3cc(COc4ccc(C)cc4-c4cccc(-n5ncc(C(=O)O)c5C(F)(F)F)n4)ccc3C2)cn1 [Compound 32] | 12 | 10.8 (≈ 17.5 µM) | 15.9
11 | Cc1cccc(-c2cccc(-c3c(C)c(C(=O)O)nn3C(C)(C)C)n2)c1OCc1ccc2c(c1)CCN(C1CCOCC1)C2 [Compound 84] | 69 | > 70 | >70
12 | Cc1ccc(OCc2ccc3c(c2)CCN(Cc2ccccn2)C3)c(-c2cccc(-n3ncc(C(=O)O)c3C(F)(F)F)n2)c1 [Compound 18] | 0.8 | > 59 | >59
13 | Cc1ccc(OCc2ccc3c(c2)CCN(C(C)C)C3)c(-c2cccc(-n3ncc(C(=O)O)c3C(F)(F)F)n2)c1 [Compound 21] | 25 | > 55 | >55
14 | Cc1ccc(OCc2ccc3c(c2)CCN(Cc2cncn2C)C3)c(-c2cccc(-n3ncc(C(=O)O)c3C(F)(F)F)n2)c1 [Compound 30] | 71 | > 60 | >60
15 | Cc1ccc(OCc2ccc3c(c2)N(C)CCC3)c(-c2cccc(-n3ncc(C(=O)O)c3C(F)(F)F)n2)c1 [Compound 13] | 79 | 8.1 (≈ 15.5 µM) | >52
16 | Cc1ccc(OCc2ccc3c(c2)CCN(Cc2ccccc2)C3)c(-c2cccc(-n3ncc(C(=O)O)c3C(F)(F)F)n2)c1 [Compound 27] | 6 | 18.2 (≈ 30.4 µM) | 25.6
17 | Cc1ccc(OCc2ccc3c(c2)CCN(C)C3=O)c(-c2cccc(-n3ncc(C(=O)O)c3C(F)(F)F)n2)c1 [Compound 8] | 280 | 6.9 (≈ 12.9 µM) | >53
18 | Cc1cccc(-c2cccc(-c3csc(C(=O)O)c3C)n2)c1OCc1ccc2c(c1)CCN(C1CCOCC1)C2 [Compound 60] | 19 | > 64 | >64
19 | Cc1cc(CN2CCc3cc(COc4c(C)cccc4-c4cccc(-c5ncc(C(=O)O)n5C)n4)ccc3C2)no1 [Compound 72] | 27 | > 67 | >67
20 | CCn1cc(CN2CCc3cc(COc4c(C)cccc4-c4cccc(-c5ncc(C(=O)O)n5C)n4)ccc3C2)cn1 [Compound 71] | 159 | > 67 | >67
21 | Cc1ccc(OCc2ccc3c(c2)CCN(C2CCOC2)C3)c(-c2cccc(-n3ncc(C(=O)O)c3C(F)(F)F)n2)c1 (stereo not drawn) [Compound 35, 1-(6-{5-methyl-2-[2-(tetrahydrofuran-3-yl)-1,2,3,4-tetrahydroisoquinolin-6-ylmethoxy]phenyl}pyridin-2-yl)-5-trifluoromethyl-1H-pyrazole-4-carboxylic acid] | 7 | 42.3 (≈ 73.1 µM) | 43.0
22 | Cc1ccc(OCc2ccc3c(c2)CCN(CC2CCOC2)C3)c(-c2cccc(-c3csc(C(=O)O)c3C)n2)c1 (stereo not drawn) [Compound 51] | 340 | 44.7 (≈ 80.6 µM) | 35.9
23 | Cc1cccc(-c2cccc(-c3ncc(C(=O)O)n3C)n2)c1OCc1ccc2c(c1)CCN(C1CCOCC1)C2 [Compound 67] | 234 | > 78 | 54.2
24 | Cc1ccc(OCc2ccc3c(c2)CCN(Cc2cc(C)on2)C3)c(-c2cccc(-n3ncc(C(=O)O)c3C(F)(F)F)n2)c1 [Compound 31] | 2 | 22 (≈ 36.4 µM) | >60
25 | Cc1ccc(OCc2ccc3c(c2)CCN(C2CC2)C3)c(-c2cccc(-n3ncc(C(=O)O)c3C(F)(F)F)n2)c1 [Compound 12] | 19 | > 54 | >54
